Data published in paper PMC2994877, “A Full Pharmacological Analysis of the Three Turkey β-Adrenoceptors and Comparison with the Human β-Adrenoceptors” (PLoS ONE, 2010).
Where two headings read alike, the source gives them in different places. Marks after values point to notes of the source that are not given here.

Tests used:
[1] = molecular target: T1, turkey β4C-adrenoceptor (tβ4C) (Meleagris gallopavo, UniProt P43141); assay: cell-based; format: binding
T1 construct: expressed in transfected cells

[2] = molecular target: T2, turkey β3C-adrenoceptor (tβ3C) (Meleagris gallopavo, UniProt A0A803YLI8); assay: 3H-CGP12177 whole cell binding, CHO tβ3C cells
Human β2-adrenoceptor = molecular target: Human β2-adrenoceptor; design: method as in PMID 15655528, PMID 20590599; conditions: Human β2, given for comparison; ref 25 and 30; cited from earlier work
Human β3-adrenoceptor = conditions: cited from earlier work
Human β1-adrenoceptor = molecular target: Human β1-adrenoceptor; design: method as in PMID 15655528, PMID 20590599; conditions: Human β1, given for comparison; ref 25 and 30; cited from earlier work
[3] = molecular target: T2, turkey β3C-adrenoceptor (tβ3C); assay: CRE-SPAP production, CHO tβ3C cells; format: cell-based
[4] = molecular target: T1, turkey β4C-adrenoceptor (tβ4C); assay: cell-based; format: cell-based
[5] = competition with 3H-CGP12177, whole cells, CHO tβ4C, given as log KD, mean ± s.e.m., read-out: Log KD (converted)
[6] = competition with 3H-CGP12177, whole cells, CHO tβ3C, given as log KD, mean ± s.e.m., read-out: Log KD (converted)
[7] = competition with 3H-CGP12177, whole cells, CHO tβ4C, given as log KD, mean ± s.e.m.
[8] = competition with 3H-CGP12177, whole cells, CHO tβ3C, given as log KD, mean ± s.e.m.
[9] = Human β3, given for comparison, ref 25 and 30

T2 sequence (A0A803YLI8 entry or part of it): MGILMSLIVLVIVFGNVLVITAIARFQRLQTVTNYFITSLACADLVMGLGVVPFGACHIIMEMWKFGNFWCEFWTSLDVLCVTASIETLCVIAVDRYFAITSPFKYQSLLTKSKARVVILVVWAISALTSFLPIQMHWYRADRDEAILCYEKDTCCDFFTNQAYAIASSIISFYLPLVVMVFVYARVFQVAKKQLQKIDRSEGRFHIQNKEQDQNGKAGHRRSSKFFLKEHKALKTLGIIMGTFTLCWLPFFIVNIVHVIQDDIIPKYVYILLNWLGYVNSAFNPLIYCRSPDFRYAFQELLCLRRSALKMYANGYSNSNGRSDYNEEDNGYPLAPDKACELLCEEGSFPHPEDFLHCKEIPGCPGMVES
T1 sequence (P43141 whole entry): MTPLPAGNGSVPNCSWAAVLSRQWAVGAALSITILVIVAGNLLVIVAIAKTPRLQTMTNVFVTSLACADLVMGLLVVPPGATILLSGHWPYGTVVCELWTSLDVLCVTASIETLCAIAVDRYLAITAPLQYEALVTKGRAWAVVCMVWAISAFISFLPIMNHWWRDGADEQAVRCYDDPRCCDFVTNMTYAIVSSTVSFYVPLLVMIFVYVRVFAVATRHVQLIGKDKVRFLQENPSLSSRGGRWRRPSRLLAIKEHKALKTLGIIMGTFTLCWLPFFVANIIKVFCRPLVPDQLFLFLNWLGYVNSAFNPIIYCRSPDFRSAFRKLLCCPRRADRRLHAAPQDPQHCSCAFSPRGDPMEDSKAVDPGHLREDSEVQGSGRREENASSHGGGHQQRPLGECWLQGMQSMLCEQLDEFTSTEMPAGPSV

Kd [1, 5] [nM]	Kd [2, 6] [nM]	Compound	Log KD (Human β2-adrenoceptor)	Log KD (Human β3-adrenoceptor; [9])	further results
–	–	CCCCCCNC(=O)Nc1ccc(S(=O)(=O)Nc2ccc(CCNC[C@H](O)COc3ccc(O)cc3)cc2)cc1 [L755507]	−6.83	–	Log KD (Human β3-adrenoceptor; Human β3, binding to site 1): −8.60 ^*; Log KD [1, 7]: −7.63±0.11; Log KD (Human β1-adrenoceptor): −6.23; Log KD [2, 8]: −6.56±0.06
–	–	COCCc1ccc(OCC(O)CNC(C)C)cc1 (stereo not drawn) [Metoprolol]	–	–	Kd [1]: 1660 nM; Kd [2]: 1100 nM
6.61	0.851	Cc1ccc(Cl)c(OCC(O)CNC(C)(C)C)c1 (stereo not drawn) [Bupranolol]	–	−7.04	Log KD (Human β1-adrenoceptor): −8.51
550	2630	CC(C)NCC(O)COc1ccc(COCCOC(C)C)cc1 (stereo not drawn) [Bisoprolol]	–	–	–
–	–	O=C(O)COc1ccc(OCCNC[C@H](O)COc2ccccc2)cc1 [ICI215001]	–	−6.63	Log KD [1, 7]: −6.55±0.06; Log KD [2, 8]: −5.31±0.09
–	–	CCc1ccccc1OC[C@@H](O)CN[C@H]1CCCc2ccccc21.O=C(O)C(=O)O [SR59230A, 3-(2-Ethylphenoxy)-1-[(1,S)-1,2,3,4-tetrahydronapth-1-ylamino]-2S-2-propanol oxalate]	−8.45	−7.37	Log KD [1, 7]: −7.65±0.06; Log KD [2, 8]: −7.96±0.08
692	537	CC(C)NCC(O)c1ccc(NS(C)(=O)=O)cc1 (stereo not drawn) [Sotalol]	–	−5.05	–
14.1	–	C=CCc1ccccc1OCC(O)CNC(C)C (stereo not drawn) [Alprenolol]	–	−6.93	Kd [2]: 3.63 nM
–	–	OCc1cc(C(O)CNCCCCCCOCCCCc2ccccc2)ccc1O (stereo not drawn) [Salmeterol]	–	−6.33	EC50 [3]: 0.0372 nM; Emax ([3]; read-out: % isop max): 96 ± 5.7%; EC50 [4]: 3.98 nM; % isop max ([4]; CRE-SPAP, % of 10 µM isoprenaline maximum, CHO tβ4C cells): 102.5±2.8%; Kd [1]: 81.3 nM; Kd [2]: 3.16 nM
–	–	C[C@H](Cc1ccc2c(c1)OC(C(=O)[O-])(C(=O)[O-])O2)NC[C@H](O)c1cccc(Cl)c1.[Na+].[Na+] [CL316243]	–	−5.11	Log KD [1, 7]: >−4; Log KD (Human β1-adrenoceptor): >−3; Log KD [2, 8]: >−4
2	–	CC(C)(C)NC[C@H](O)COc1nsnc1N1CCOCC1 [Timolol]	–	−6.80	–
–	–	O=C(NCCNCC(O)COc1ccc(O)cc1)N1CCOCC1 (stereo not drawn) [Xamoterol]	–	–	Kd [1]: 589 nM; Kd [2]: 2290 nM
–	–	CC(C)OC(=O)c1cc2c(OCC(O)CNC(C)(C)C)cccc2[nH]1 (stereo not drawn) [SDZ21009]	−10.28	−7.10	Log KD [1, 7]: −9.06±0.07; Log KD [2, 8]: −10.17±0.08
17400	17800	CC(C)NCC(O)COc1ccc(CC(N)=O)cc1 (stereo not drawn) [Atenolol]	–	–	–

Compound	Kd [1, 5] [nM]	Kd [2, 6] [nM]	Log KD (Human β2-adrenoceptor)	Log KD (Human β3-adrenoceptor; [9])	further results
CCCC(=O)Nc1ccc(OCC(O)CNC(C)C)c(C(C)=O)c1 (stereo not drawn) [Acebutolol]	3890	4070	–	–	–
OC(CNCC(O)C1CCc2cc(F)ccc2O1)C1CCc2cc(F)ccc2O1 (stereo not drawn) [Nebivolol]	1.48	16.6	−7.92	−7.04	–
CC(C)(C)NCC(O)c1ccccc1Cl (stereo not drawn) [Tulobuterol]	3470	–	−6.83	−4.72	Kd [2]: 229 nM
COc1ccc(CCNC[C@H](O)c2ccc(O)cc2)cc1OC [Denopamine]	1120	2340	−5.83	−5.30	–
CC(C)NCC(O)COc1ccc(CCOCC2CC2)cc1 (stereo not drawn) [Betaxalol]	575	–	–	−5.97	–
